Experimental data reported in PubChem BioAssay (NCI).
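Briefly, cells in 96-well plates were exposed to five compound concentrations for 48 h, and endpoints were estimated by linear interpolation. TGI: concentration producing complete growth inhibition.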

What was measured:
Experiment in all cases: DTP human tumour cell line panel, 48 h
SF-268 CNS = test system: SF-268 CNS
MDA-MB-435 = test system: MDA-MB-435
M14 melanoma = test system: M14 melanoma
MALME-3M melanoma = test system: MALME-3M melanoma
SN12C renal = test system: SN12C renal
EKVX NSCLC = test system: EKVX NSCLC
KM12 colon = test system: KM12 colon
MOLT-4 leukemia = test system: MOLT-4 leukemia
NCI-H522 lung = test system: NCI-H522 lung
U251 CNS = test system: U251 CNS
IGROV1 ovarian = test system: IGROV1 ovarian
NCI-H23 lung = test system: NCI-H23 lung
PC-3 prostate = test system: PC-3 prostate
HT29 colon = test system: HT29 colon
HS 578T breast = test system: HS 578T breast
SNB-19 CNS = test system: SNB-19 CNS
MDA-MB-231 breast = test system: MDA-MB-231 breast
786-0 renal = test system: 786-0 renal
A549 NSCLC = test system: A549 NSCLC
OVCAR-3 ovarian = test system: OVCAR-3 ovarian
SNB-75 CNS = test system: SNB-75 CNS
HCT-15 colon = test system: HCT-15 colon
T-47D breast = test system: T-47D breast
BT-549 breast = test system: BT-549 breast
K-562 leukemia = test system: K-562 leukemia
UO-31 renal = test system: UO-31 renal
OVCAR-4 ovarian = test system: OVCAR-4 ovarian
HOP-62 NSCLC = test system: HOP-62 NSCLC
OVCAR-5 ovarian = test system: OVCAR-5 ovarian
HL-60(TB) leukemia = test system: HL-60(TB) leukemia
CCRF-CEM leukemia = test system: CCRF-CEM leukemia
TK-10 renal = test system: TK-10 renal
HCT-116 colon = test system: HCT-116 colon
DU-145 prostate = test system: DU-145 prostate
RXF 393 renal = test system: RXF 393 renal
CAKI-1 renal = test system: CAKI-1 renal
SK-OV-3 ovarian = test system: SK-OV-3 ovarian
UACC-257 melanoma = test system: UACC-257 melanoma
NCI/ADR-RES ovarian = test system: NCI/ADR-RES ovarian
SF-295 CNS = test system: SF-295 CNS
NCI-H460 lung = test system: NCI-H460 lung
ACHN renal = test system: ACHN renal
UACC-62 melanoma = test system: UACC-62 melanoma
LOX IMVI melanoma = test system: LOX IMVI melanoma
COLO 205 colon = test system: COLO 205 colon
SK-MEL-5 melanoma = test system: SK-MEL-5 melanoma
MDA-N = test system: MDA-N
NCI-H226 lung = test system: NCI-H226 lung
SR leukemia = test system: SR leukemia
SK-MEL-28 melanoma = test system: SK-MEL-28 melanoma
OVCAR-8 ovarian = test system: OVCAR-8 ovarian
MCF7 breast = test system: MCF7 breast
HCC-2998 colon = test system: HCC-2998 colon
SK-MEL-2 melanoma = test system: SK-MEL-2 melanoma
SW-620 colon = test system: SW-620 colon
HOP-92 NSCLC = test system: HOP-92 NSCLC
A498 renal = test system: A498 renal
RPMI-8226 leukemia = test system: RPMI-8226 leukemia

Measured: TGI

S=C1CCSc2c(ccc3ccccc23)N1
not listed: HCC-2998 colon | SK-MEL-2 melanoma | SW-620 colon | HOP-92 NSCLC | A498 renal | RPMI-8226 leukemia
> 100 µM: all other assays above

CC(C)[C@H](NC(=O)[C@H](N)Cc1ccc(N(CCCl)CCCl)cc1)C(=O)O
not listed: SR leukemia
> 100 µM: all other assays above
